This assay concerns P388 leukemia ip, CD2F1 mice, survival T/C. The assay can be described thus: NCI In Vivo Anticancer Drug Screen. Data for tumor model P388 Leukemia (intraperitoneal) in CD2F1 (CDF1) mice. The conditions noted are these: endpoint: median survival time, higher = longer survival. The method in brief:
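Mice carrying the transplanted tumor received test compound or vehicle. Survival was recorded in each group, and the value is the treated-group measurement divided by that of the vehicle-treated control group.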

Setting [1] is: dose: 12.5 mg/kg/injection, schedule: Q01DX009 (ip), vehicle: saline with Tween-80.
[2] abbreviates: dose: 25.0 mg/kg/injection, schedule: Q01DX009 (ip), vehicle: saline with Tween-80.
[3] abbreviates: dose: 50.0 mg/kg/injection, schedule: Q01DX009 (ip), vehicle: saline with Tween-80.
Setting [4] is: dose: 60.0 mg/kg/injection, schedule: Q01DX005 (ip), vehicle: saline with Tween-80.
Setting [5] is: dose: 120.0 mg/kg/injection, schedule: Q01DX005 (ip), vehicle: saline with Tween-80.
[6] abbreviates: dose: 50.0 mg/kg/injection, schedule: Q01DX005 (ip), vehicle: saline with Tween-80.
Where [7] appears, read: dose: 100.0 mg/kg/injection, schedule: Q01DX005 (ip), vehicle: saline with Tween-80.
[8] abbreviates: dose: 200.0 mg/kg/injection, schedule: Q01DX005 (ip), vehicle: saline with Tween-80.
Setting [9] is: dose: 240.0 mg/kg/injection, schedule: Q01DX005 (ip), vehicle: saline with Tween-80.
Setting [10] is: dose: 100.0 mg/kg/injection, schedule: Q04DX002 (ip), vehicle: saline with Tween-80.
Where [11] appears, read: dose: 50.0 mg/kg/injection, schedule: Q01DX005 (ip), vehicle: Klucel (hydroxypropylcellulose) (HPC).
Setting [12] is: dose: 100.0 mg/kg/injection, schedule: Q01DX005 (ip), vehicle: Klucel (hydroxypropylcellulose) (HPC).

Where “and” joins values, the source holds several entries; their conditions need not be identical. Equal entries are not always repeated. Toxic doses and inconclusive results are not listed.

For `[CH3][Sn]([CH3])([CH3])[O]C(=O)CNC(=O)c1ccccc1`, the T/C was 103 % of control (dose: 1.56 mg/kg/injection, schedule: Q01DX001 (ip), vehicle: Klucel (hydroxypropylcellulose) (HPC)) and 103 % of control (dose: 3.12 mg/kg/injection, schedule: Q01DX001 (ip), vehicle: Klucel (hydroxypropylcellulose) (HPC)).
Regarding `CCO/C=C1/N=C(c2cc([N+](=O)[O-])cc([N+](=O)[O-])c2C)OC1=O`, the T/C is 93 % of control (dose: 60.0 mg/kg/injection, schedule: Q01DX005 (ip), vehicle: saline + Tween-80 + alcohol); 94 % of control (dose: 120.0 mg/kg/injection, schedule: Q01DX005 (ip), vehicle: saline + Tween-80 + alcohol); 88 % of control (dose: 240.0 mg/kg/injection, schedule: Q01DX005 (ip), vehicle: saline + Tween-80 + alcohol).
For the molecule `CNC1CC2OC(C)(C1OC)n1c3ccccc3c3c4c(c5c6ccccc6n2c5c31)C(=O)NC4` (configuration not stated), the T/C is, setting by setting: (dose: 0.75 mg/kg/injection, schedule: Q01DX005 (ip), vehicle: water) 120 % of control; (dose: 1.5 mg/kg/injection, schedule: Q01DX005 (ip), vehicle: water) 90 % of control.
Turning to `C1CN(SSN2CCOCC2)CCO1`, the T/C is 113 % of control under setting [1]; 104 % of control under setting [2]; 100 % of control under setting [3]; 100 % of control (dose: 100.0 mg/kg/injection, schedule: Q01DX009 (ip), vehicle: saline with Tween-80).
In the case of `O=c1nc(Oc2ccc(Cl)cc2Cl)oc2cc(Cl)ccc12`, the T/C was 94 % of control under setting [4] and 94 % of control under setting [5].
As for `CC1=CC2N(C=C1)C(c1ccc(Cl)cc1)=NON2c1cc(C)ccn1` (configuration not stated), the T/C reads like this: under setting [6], 92 % of control; under setting [7], 86 % of control and 94 % of control; under setting [5], 87 % of control; under setting [8], 100 % of control; under setting [9], 93 % of control.
Turning to `COc1cc(C2C(C(C)=O)=C(C)Oc3cc4c(cc32)OCO4)cc(OC)c1OC` (configuration not stated), the T/C runs as follows: (dose: 30.0 mg/kg/injection, schedule: Q01DX005 (ip), vehicle: saline with Tween-80) 89 % of control; under setting [4], 87 % of control and 89 % of control; under setting [5], 90 % of control; under setting [9], 87 % of control.
As to `COc1cc2cc[n+](C)c(Cc3ccccc3)c2cc1OC`, the T/C is 111 % of control (dose: 3.12 mg/kg/injection, schedule: Q01DX009 (ip), vehicle: Klucel (hydroxypropylcellulose) (HPC)); 111 % of control (dose: 6.25 mg/kg/injection, schedule: Q01DX009 (ip), vehicle: Klucel (hydroxypropylcellulose) (HPC)); 114 % of control (dose: 12.5 mg/kg/injection, schedule: Q01DX009 (ip), vehicle: Klucel (hydroxypropylcellulose) (HPC)); 121 % of control (dose: 25.0 mg/kg/injection, schedule: Q01DX009 (ip), vehicle: Klucel (hydroxypropylcellulose) (HPC)); 160 % of control (dose: 50.0 mg/kg/injection, schedule: Q01DX009 (ip), vehicle: Klucel (hydroxypropylcellulose) (HPC)).
For the molecule `CC(=O)C(=C/C=C/c1ccccc1)C(C)=O`, the T/C reads like this: under setting [6], 90 % of control; under setting [7], 98 % of control; under setting [8], 100 % of control.
In the case of `CC1(c2ccccc2)NN1`, the T/C was 94 % of control under setting [10]; 95 % of control (dose: 200.0 mg/kg/injection, schedule: Q04DX002 (ip), vehicle: saline with Tween-80); 94 % of control (dose: 400.0 mg/kg/injection, schedule: Q04DX002 (ip), vehicle: saline with Tween-80).
In the case of `O=[N+]([O-])O.O=[N+]([O-])O.[NH-]C(c1ccccc1)C([NH-])c1ccccc1.[Pt+2]` (configuration not stated), the T/C runs as follows: (dose: 6.25 mg/kg/injection, schedule: Q04DX002 (ip), vehicle: saline) 161 % of control; (dose: 12.5 mg/kg/injection, schedule: Q04DX002 (ip), vehicle: saline) 154 % of control; (dose: 25.0 mg/kg/injection, schedule: Q04DX002 (ip), vehicle: saline) 154 % of control.
With `CC1(C)CC([N+](C)(C)CCCCCC[N+](C)(C)C2CC(C)(C)N(O)C(C)(C)C2)CC(C)(C)N1O`, the T/C by setting is: (dose: 12.5 mg/kg/injection, schedule: Q04DX003 (ip), vehicle: saline) 105 % of control; (dose: 25.0 mg/kg/injection, schedule: Q04DX003 (ip), vehicle: saline) 100 % of control; (dose: 50.0 mg/kg/injection, schedule: Q04DX003 (ip), vehicle: saline) 103 % of control and 108 % of control.
With `O=C(O)c1c(C(=O)O)c2cccn2c2c1cnn2-c1ccccc1`, the T/C under setting [4] was 102 % of control, the T/C under setting [5] is 100 % of control and the T/C under setting [9] was 100 % of control.
With `CN(C)CC(CN(C)C)C(=O)c1ccccc1`, the T/C reads like this: (dose: 3.12 mg/kg/injection, schedule: Q01DX009 (ip), vehicle: saline) 103 % of control and 105 % of control; (dose: 6.25 mg/kg/injection, schedule: Q01DX009 (ip), vehicle: saline) 105 % of control (2×) and 122 % of control; (dose: 12.5 mg/kg/injection, schedule: Q01DX009 (ip), vehicle: saline) 107 % of control and 117 % of control and 112 % of control; (dose: 25.0 mg/kg/injection, schedule: Q01DX009 (ip), vehicle: saline) 117 % of control [middle of 5 runs]; (dose: 50.0 mg/kg/injection, schedule: Q01DX009 (ip), vehicle: saline) 124 % of control.
For `ClC1=C(Cl)C(Cl)=C(Cl)C1=Cc1ccccc1`, the T/C (dose: 6.25 mg/kg/injection, schedule: Q01DX009 (ip), vehicle: saline with Tween-80) is 108 % of control; the T/C under setting [1] is 118 % of control; the T/C under setting [2] was 117 % of control; the T/C under setting [3] is 123 % of control.
Turning to `CCOC(=O)CCCCCOC1CCCCO1` (configuration not stated), the T/C under setting [4] is 98 % of control, the T/C under setting [5] is 97 % of control and the T/C under setting [9] is 103 % of control.
For `COc1cc(CCCOC2OC(COC3OCC(O)C(O)C3O)C(O)C(O)C2O)cc2cc(-c3ccc4c(c3)OCO4)oc12` (configuration not stated), the T/C (dose: 2.34 mg/kg/injection, schedule: Q01DX005 (ip), vehicle: Klucel (hydroxypropylcellulose) (HPC)) is 95 % of control; the T/C (dose: 4.68 mg/kg/injection, schedule: Q01DX005 (ip), vehicle: Klucel (hydroxypropylcellulose) (HPC)) was 94 % of control; the T/C (dose: 9.37 mg/kg/injection, schedule: Q01DX005 (ip), vehicle: Klucel (hydroxypropylcellulose) (HPC)) is 98 % of control; the T/C (dose: 18.75 mg/kg/injection, schedule: Q01DX005 (ip), vehicle: Klucel (hydroxypropylcellulose) (HPC)) is 94 % of control.
Take `[Cl][Pt+2][Cl].[NH-]c1ccc(C(=O)O)cc1[NH-]`: the T/C is, setting by setting: (dose: 6.25 mg/kg/injection, schedule: Q04DX002 (ip), vehicle: saline with Tween-80) 100 % of control; (dose: 12.5 mg/kg/injection, schedule: Q04DX002 (ip), vehicle: saline with Tween-80) 102 % of control; (dose: 25.0 mg/kg/injection, schedule: Q04DX002 (ip), vehicle: saline with Tween-80) 100 % of control; (dose: 50.0 mg/kg/injection, schedule: Q04DX002 (ip), vehicle: saline with Tween-80) 110 % of control; under setting [10], 120 % of control.
Take `CC1CCC(C(=O)C(Cl)Cc2ccccc2)CC1` (configuration not stated): the T/C is, setting by setting: under setting [11], 88 % of control; under setting [12], 92 % of control.
Regarding `COc1ccc(-c2nn(C)c3c2C(=O)C=CC3=O)cc1OC`, the T/C is, setting by setting: (dose: 100.0 mg/kg/injection, schedule: Q01DX001 (ip), vehicle: Klucel (hydroxypropylcellulose) (HPC)) 92 % of control; (dose: 200.0 mg/kg/injection, schedule: Q01DX001 (ip), vehicle: Klucel (hydroxypropylcellulose) (HPC)) 106 % of control; (dose: 400.0 mg/kg/injection, schedule: Q01DX001 (ip), vehicle: Klucel (hydroxypropylcellulose) (HPC)) 95 % of control.
In the case of `COc1cc(NS(=O)(=O)c2ccc(NC(C)c3ccc4cccnc4c3O)cc2)nc(OC)n1` (configuration not stated), the T/C by setting is: under setting [4], 98 % of control; under setting [5], 99 % of control; under setting [9], 96 % of control.
As to `C=CC(C#N)(C=C)C=C`, the T/C under setting [1] was 104 % of control, the T/C under setting [2] is 103 % of control and the T/C under setting [3] is 108 % of control.
As for `COc1cc(C(=O)c2cc3c(cc2C=O)OCO3)cc(OC)c1OC`, the T/C is, setting by setting: under setting [11], 95 % of control; under setting [12], 90 % of control; (dose: 200.0 mg/kg/injection, schedule: Q01DX005 (ip), vehicle: Klucel (hydroxypropylcellulose) (HPC)) 99 % of control.

The record behind these values is PubChem BioAssay AID330 (DTP/NCI, 2004).
